One block for each compound: values may come before it. Where a SMILES comes first, the peptide text is derived from it. Where no end group is shown, it is not given here. The star is where a group is joined. Cbz = O=C(OCc1ccccc1)*
Assays:
[1] = tested on: human islets; test: Glucose stimulated insulin secretion (GSIS) in human islets; type: cell-based; conditions: Ad-MST1 72 h
Experimental: (§1) For acute insulin release in response to glucose, primary human and mouse islets and INS1 cells were washed and pre-incubated (30 min) in Krebs-Ringer bicarbonate buffer (KRB) containing 2.8 mM glucose and 0.5% BSA. KRB was then replaced by KRB 2.8 mM glucose for 1 h (basal), followed by an additional 1 h in KRB 16.7 mM glucose. Insulin content was extracted with 0.18N HCl in 70% ethanol. Insulin was determined using human and mouse insulin ELISA (ALPCO Diagnostics, Salem, N.H.). Secreted insulin was normalized to insulin content.

[2] = tested on: INS-1E cells; test: Glucose stimulated insulin secretion (GSIS) in INS-1E cells; type: cell-based, rat; conditions: Ad-MST1 72 h
Experimental: as §1

[3] = tested on: PDX1 target genes; test: RT-PCR of PDX1 target genes in INS-1E cells; type: cell-based, rat; conditions: INS-1E cells (FIG. 21 d)
From the text: (§2) Total RNA was isolated from cultured human islets and INS1 cells using TRIzol (Invitrogen), and RT-PCR performed as described previously (Shu et al., Diabetologica 55 (2012), 3296-307). For analysis, the Applied Biosystems StepOne Real-Time PCR system (Applied Biosystems, CA, USA) with TaqMan® Fast Universal PCR Master Mix for TaqMan assays (Applied Biosystems) was used. TaqMan® Gene Expression Assays were used for pdx1 (Hs00426216_m1), SLC2A2 (Hs01096905_m1), GCK (Hs01564555_m1), insulin (Hs02741908_m1), PPIA (Hs99999904_m1) and tubulin (Hs00362387_m1) for human and PDX1 (Rn00755591_m1), SLC2A2 (Rn00563565_m1), GCK (Rn00688285_m1), INS1 (Rn02121433_g1), […] (Rn01774648_g1), BCL2L11 (Hs01083836_m1), PPIA (Rn00690933_m1) and tuba1a (Rn01532518_g1) for rat.

[4] = tested on: PDX1 target genes; test: RT-PCR of PDX1 target genes in human islets; type: cell-based; conditions: human islets (FIG. 15 q)
From the text: as §2

[5] = target: T1, MST1 (Homo sapiens, UniProt Q13043); test: In vitro kinase assay, phosphorylation of PDX1 by recombinant MST1; type: biochemical
T1 construct: purchased Upstate Biotechnology
T1 sequence (Q13043 1-487): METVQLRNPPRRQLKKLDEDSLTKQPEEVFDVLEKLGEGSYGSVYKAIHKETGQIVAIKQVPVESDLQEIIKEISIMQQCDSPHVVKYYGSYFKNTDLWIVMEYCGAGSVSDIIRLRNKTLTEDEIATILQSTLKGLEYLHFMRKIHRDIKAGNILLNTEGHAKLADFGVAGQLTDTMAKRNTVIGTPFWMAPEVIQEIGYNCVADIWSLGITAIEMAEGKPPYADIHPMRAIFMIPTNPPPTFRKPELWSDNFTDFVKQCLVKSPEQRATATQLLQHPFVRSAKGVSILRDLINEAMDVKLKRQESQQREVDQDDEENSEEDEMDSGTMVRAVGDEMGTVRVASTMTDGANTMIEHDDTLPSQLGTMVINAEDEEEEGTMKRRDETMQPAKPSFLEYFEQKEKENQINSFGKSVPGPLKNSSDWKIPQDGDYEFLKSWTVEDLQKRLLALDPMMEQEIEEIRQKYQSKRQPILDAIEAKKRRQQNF
Experimental: For immunoprecipitation, cells were washed with PBS and lysed in cold buffer containing 20 mM Tris-HCl (pH 7.5), 150 mM NaCl, 0.27 M sucrose, 1 mM EDTA, 1 mM EGTA, 50 mM NaF, 1% NP-40, 5 mM sodium pyrophosphate and 10 mM β-glycerophosphate supplemented with proteinase/phosphatase inhibitors for 30 min on ice. Lysates were centrifuged at 12,000 g for 15 min at 4° C. prior to immunoprecipitation. Immunoprecipitations were carried out with incubating 0.5-1 mg of total lysate with rabbit anti-PDX1 (1:500), rabbit anti-MST1 (1:50), mouse anti-Myc (1:1000) and rabbit anti-GFP (1:1000) antibodies on a rotator at 4° C. overnight. Immunocomplexes were then captured with Protein A Agarose Fast Flow (Millipore) by rotation at 4° C. for 4 h. After five washes with cold lysis buffer, the immunoprecipitates were used for kinase assays or resuspended in sample buffer and separated by NuPAGE 4-12% Bis-Tris gels (Invitrogen).
Purified human active MST1 (Upstate Biotechnology) was incubated with ^32P-ATP (2 μCi, Perkin Elmer Life Sciences), ATP (100 μM) and 1 mM dithiothreitol (DTT) in a kinase buffer containing 40 mM HEPES (pH 7.4), 20 mM MgCl2, 1 mM EDTA and 1 μg of purified recombinant human PDX-1 (Abcam) or bacterially purified GST-PDX1 (WT and mutants) as substrates. After incubation at 30° C. for 30 min, the reaction was stopped by adding loading buffer and proteins were separated on NuPAGE gels and phosphorylation levels visualized either by autoradiography or specific antibody for phospho-PDX1. The total PDX1 was detected with anti-PDX1 antibody.
Expression and induction of recombinant GST proteins were performed as described previously (Tolia et al., Nat. Methods 3 (2006), 55-64). Escherichia coli BL21 cells with various GST-fusion expression plasmids were cultured at 37° C. and expression of recombinant proteins was induced by 0.1 mM final concentration of Isopropyl-β-D-thio-galactoside (IPTG; sigma) for 2.5 h. Cells were lysed using B-PER bacterial protein extraction reagent (Pierce) and purified using Glutathione Spin Columns (Pierce).

[6] = tested on: PDX1; test: PDX1 protein level, degradation and ubiquitination in HEK293 cells co-transfected with MST1; type: cell-based, mouse
From the text: pCMV-myc-MST1 and kinase-dead (MST1-K59; dnMST1) are described in Yamamoto et al., J. Clin. Invest. 111 (2003), 1463-1474. Mouse pB.RSV.PDX1-GFP is described in Kawamori et al., Diabetes 52 (2003) 2896-2904. pcDNA3 Myr-HA Akt1, HA-Ubiquitin and pCDNA3 Jnk1a1 (apf)(dn-JNK) plasmids were obtained from Addgene (Cambridge, Mass.). Mouse PDX1 mutants (T11, T126, T152, T155, T214 and T231) in pCGIG5 vector were generated by site-directed mutagenesis as described previously (Frogne et al., 7 (2012), e35233). All mutations were verified by sequencing. To make bacterial expression plasmids for PDX1 mutants, the complete mouse PDX1 CDS (wild type and mutants) has been amplified by PCR using a specific set of primers from pCGIG5 plasmids and cloned into a pGEX-6P-1 bacterial expression vector. The rat insulin driven luciferase vector (RIP-Luc) was constructed by subcloning a 700 by fragment containing −660 bp of the rat 2 insulin promoter into a pMCS-Green-Renilla-Luc vector (Thermo Scientific). pCMV-Red firefly Luc vector was obtained from Thermo Scientific.
HEK293 cells were cultured in 10-cm cell culture dishes and transfected with HA-ubiquitin, PDX1 and MST1 expression plasmids for 48 h. For ubiquitination in human islets, 5000 islets per condition were transfected with ubiquitin plasmid. After 24 h, islets were infected with Ad-GFP or Ad-MST1 for 6 h and kept for another 48 h. […] Lysates were immunoprecipitated with PDX1-specific antibody overnight at 4° C. Immunocomplexes were then captured with Protein A Agarose by rotation at 4° C. for 4 h. After extensive washing, immunoprecipitates were boiled in sample buffer and proteins subjected to western blotting with ubiquitin-specific antibody.
HEK293 cells were transfected with PDX1 alone, or together with MST1 expressing-plasmids. Human islets were infected with Ad-GFP (control) or Ad-MST1. At 48 h after post-transfection/infection, cells were treated with 50 μg/ml translation initiation inhibitor cycloheximde (CHX) to the medium at the times indicated and the lysates were subjected to western blotting.

[7] = tested on: PDX1; test: Luciferase reporter assay of PDX1 transcriptional activity (rat Ins2-Luc) in HEK293 cells; type: cell-based; conditions: HEK293, 48 h
Experimental: The transcriptional activity of the PDX1 at promoter level was evaluated using rat Ins2-Luc renilla reporter gene HEK293 cells were transfected with Ins2-Luc renilla, pCMV-firefly, PDX1-WT or PDX1-T11A, alone or together with Myc-MST1 expressing plasmids for 48 h. INS-1E cells transfected with Ins2-Luc renilla and pCMV-firefly plasmids and were infected with Ad-GFP or Ad-MST1 for 48 h. Luciferase activity determined using the Renilla-Firefly Luciferase Dual Assay Kit according to the manufacturer's instructions (Pierce). pCMV-firefly was used as transfection control.

[8] = tested on: MST1; test: MST1 activation and AKT signalling in INS-1E cells and human islets, western blotting; type: cell-based, rat; conditions: for glucose- and cytokine-induced P-MST1, MST1-cleavage and apoptosis: INS-1E cells, 72 h, GLP1 and insulin 100 nM
Experimental: Islet purity was greater than 95% as judged by dithizone staining (if this degree of purity was not achieved by routine isolation, islets were handpicked). Islets from MST1^−/− mice and their WT littermates were isolated as described previously (Schulthess et al., Cell. Metab. 9 (2009) 125-139). Pancreata were perifused with a Liberase™ (#05401119001, Roche, Mannheim, Germany) solution according to the manufacturer's instructions and digested at 37° C., followed by washing and handpicking Human islets were cultured in complete CMRL-1066 (Invitrogen) medium at 5.5 mM glucose and mouse islets and INS-1E cells at complete RPMI-1640 medium at 11.1 mM glucose and HEK293 cells were cultured in Dulbecco's modified Eagle's medium (DMEM). All media included with glutamate, 1% penicillin-streptomycin and 10% fetal bovine serum (FBS, all PAA). INS-1E medium was supplemented with 10 mM HEPES, 1 mM sodium pyruvate and 50 μM β-mercaptoethanol. Islets and INS-1E were exposed to complex diabetogenic conditions: 22.2-33.3 mM glucose, 0.5 mM palmitic acid, the mixture of 2 ng/ml recombinant human IL-1β (R&D Systems, Minneapolis, Minn.)+1,000 U/ml recombinant human IFN-γ (PeProTech) for 72 h, 100 μM H2O2 for 6 h, 1 mM streptozotocin (STZ) for 8 h or 1 mM thapsigargin for 6 h (all Sigma).
At the end of the incubation periods, islets and INS1E cells were washed in ice-cold PBS and lysed in lysis buffer containing 20 mM Tris acetate, 0.27 M sucrose, 1 mM EDTA, 1 mM EGTA, 50 mM NaF, 1% Triton X-100, 5 mM sodium pyrophosphate and 10 mM β-glycerophosphate. Prior to use, the lysis buffer was supplemented with Protease- and Phosphatase-inhibitors (Pierce, Rockford, Ill., USA). Protein concentrations were determined with the BCA protein assay (Pierce). Equivalent amounts of protein from each treatment group were run on a NuPAGE 4-12% Bis-Tris gel (Invitrogen) and electrically transferred onto PVDF membranes. […] Membrane was developed using a chemiluminescence assay system (Pierce) and analyzed using DocIT®LS image acquisition 6.6a (UVP BioImaging Systems, Upland, Calif., USA).

phosphorylation by recombinant MST1 of PDX1 immunoprecipitated from HEK293 cells ([5]; all PDX1 mutants transfected into HEK293): markedly decreased
MST1-induced phosphorylation at the Thr11 site and overall Thr-phosphorylation ([5]; p-T11 and pan-Threonine antibodies, immunoprecipitated PDX1): markedly reduced
threonine phosphorylation of PDX1-GST fusion proteins by MST1 ([5]; proteins purified from bacteria, pan-phospho threonine antibody): exception
Compound: PDX1-T11A: mutant PDX1 with amino acid Thr11 substituted to alanine, inert to phosphorylation by MST1
MST1-induced impairment in GSIS [1]: normalized
MST1-induced impairment in GSIS [2]: normalized
MST1-induced down regulation of PDX1 target genes [3]: restored
MST1-induced down regulation of PDX1 target genes [4]: restored
MST1-induced rapid degradation of PDX1 in the presence of CHX ([6]; 50 μg/ml CHX): did not occur
PDX1 levels in presence of MST1 ([6]; HEK293 cells, 48 h): does not decrease
PDX1 ubiquitination ([6]; HEK293 cells, HA-ubiquitin, 48 h, MG-132 last 6 h): less
Reduction of PDX1 transcriptional activity by MST1 [7]: not

Compound: GLP1: Glucagon like-peptide 1 (Sigma), exogenously added mitogen (HAEGTFTSDVSSYLEGQAAKEFIAWLVKGR; ends and bridges not checked; UniProt P01275 98-127, looked up)
glucose- and cytokine-induced P-MST1, MST1-cleavage and apoptosis [8]: inhibited

Compound: insulin: recombinant human insulin
glucose- and cytokine-induced P-MST1, MST1-cleavage and apoptosis [8]: inhibited

Compound: CC(C)C[C@@H](C=O)NC(=O)[C@H](CC(C)C)NC(=O)[C@H](CC(C)C)NC(=O)OCc1ccccc1 [MG-132, reference compound] (Cbz-Leu-Leu-Leu-aldehyde)
disappearance of PDX1 ([6]; PDX1 overexpressing HEK293 cells with MST1, MG-132 50 μM for 6 h): abolished

Compound: z-DEVD-fmk
stress-induced MST1 cleavage by diabetic stimuli ([8]; human islets and INS-1E cells): JNK and caspase-3 were responsible for stress-induced MST1 cleavage
